Drawing on patent publication US8658646B2, “Pyrrolopyrazine kinase inhibitors” (Hoffmann-LaRoche Inc., priority 2011, dated 2014), this text covers IC50 for ten molecules.

The target of assay [1] is T1, JAK3: Recombinant human kinase domain (Homo sapiens, UniProt P52333).
T1 construct: JAK3: Recombinant human kinase domain from Millipore (Cat #14-629) or prepared; purchased Millipore 14-629
Description: Determination of IC50 of Janus Kinase (JAK) inhibition, radioactive end-point 33P-ATP assay, JAK3. The format is biochemical. As to conditions: ATP 1.5 uM, peptide 50 uM, 20 minutes, read-out: JAK3-INHIB-DR/v1~NO ADDITIVE~Enzyme_Conc = 100.

For assay [2], the target named is T2, recombinant human SYK360-635 (Homo sapiens, UniProt P43405).
T2 construct: made in house
Description: Determination of IC50 of Spleen Tyrosine Kinase (SYK) inhibition, 33P ATP filtration assay. The format is biochemical. Conditions: SYK aa 360-635 0.5 nM; ATP 20 μM, peptide 5 μM, 0.1% BSA; read-out: SYK_ENZYME_FILTRATION/v1, BSA.

Some results are limits rather than exact numbers.

T1 sequence (P52333 822-1111 limits assumed): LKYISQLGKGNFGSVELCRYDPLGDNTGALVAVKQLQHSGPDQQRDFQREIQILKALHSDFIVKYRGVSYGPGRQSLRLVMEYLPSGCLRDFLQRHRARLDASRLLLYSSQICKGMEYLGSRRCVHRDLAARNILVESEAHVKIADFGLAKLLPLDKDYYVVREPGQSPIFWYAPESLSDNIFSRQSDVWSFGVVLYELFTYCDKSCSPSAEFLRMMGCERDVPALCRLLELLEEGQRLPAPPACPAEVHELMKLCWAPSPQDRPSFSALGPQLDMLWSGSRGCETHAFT

On to `COC[C@H](C)NC(=O)c1c[nH]c2ncc(-c3nn(CCn4cccn4)c4cc(F)ccc34)nc12` [Example I-244, 2-[6-Fluoro-1-(2-pyrazol-1-yl-ethyl)-1H-indazol-3-yl]-5H-pyrrolo[2,3-b]pyrazine-7-carboxylic acid ((S)-2-methoxy-1-methyl-ethyl)-amide], for which the IC50 in assay [1] was found to be 5.46 nM; in assay [2] it was 324 nM.

With `CC(NC(=O)c1c[nH]c2ncc(-c3nn(CCN4CCOCC4)c4cc(Cl)ccc34)nc12)c1cccnc1` (centres unmarked) [Example I-245, 2-[6-Chloro-1-(2-morpholin-4-yl-ethyl)-1H-indazol-3-yl]-5H-pyrrolo[2,3-b]pyrazine-7-carboxylic acid (1-pyridin-3-yl-ethyl)-amide], the IC50 worked out at 47.2 nM in assay [1] and 131 nM in assay [2].

In the case of `CC(NC(=O)c1c[nH]c2ncc(-c3nn(CCN(C)C)c4cc(Cl)ccc34)nc12)c1cccnc1` (centres unmarked) [Example I-246, 2-[6-Chloro-1-(2-dimethylamino-ethyl)-1H-indazol-3-yl]-5H-pyrrolo[2,3-b]pyrazine-7-carboxylic acid (1-pyridin-3-yl-ethyl)-amide], the IC50 in assay [1] worked out at 41.5 nM; in assay [2] it was 354 nM.

In the case of `CC(NC(=O)c1c[nH]c2ncc(-c3nn(C)c4cc(Cl)ccc34)nc12)c1cccnc1` (centres unmarked) [Example I-247, 2-(6-Chloro-1-methyl-1H-indazol-3-yl)-5H-pyrrolo[2,3-b]pyrazine-7-carboxylic acid (1-pyridin-3-yl-ethyl)-amide], the IC50 was 66.7 nM in assay [1] and 69.2 nM in assay [2].

For `CC(NC(=O)c1c[nH]c2ncc(-c3nn(CCN4CCOCC4)c4cc(F)ccc34)nc12)c1ccncc1` (centres unmarked) [Example I-248, 2-[6-Fluoro-1-(2-morpholin-4-yl-ethyl)-1H-indazol-3-yl]-5H-pyrrolo[2,3-b]pyrazine-7-carboxylic acid (1-pyridin-4-yl-ethyl)-amide], the IC50 in assay [1] is 53.5 nM; in assay [2], 514 nM.

Take `CC(NC(=O)c1c[nH]c2ncc(-c3nn(CCN(C)C)c4cc(F)ccc34)nc12)c1ccncc1` (centres unmarked) [Example I-249, 2-[1-(2-Dimethylamino-ethyl)-6-fluoro-1H-indazol-3-yl]-5H-pyrrolo[2,3-b]pyrazine-7-carboxylic acid (1-pyridin-4-yl-ethyl)-amide]: the IC50 came to 170 nM in assay [1] and 1990 nM in assay [2].

As for `CC(Cc1ccccn1)NC(=O)c1c[nH]c2ncc(-c3nn(CCN4CCCC4)c4cc(F)ccc34)nc12` (centres unmarked) [Example I-250, 2-[6-Fluoro-1-(2-pyrrolidin-1-yl-ethyl)-1H-indazol-3-yl]-5H-pyrrolo[2,3-b]pyrazine-7-carboxylic acid (1-methyl-2-pyridin-2-yl-ethyl)-amide], the IC50 in assay [1] was more than 1000 nM; in assay [2], 8930 nM.

Regarding `C[C@@H](NC(=O)c1c[nH]c2ncc(-c3nn(C)c4cc(F)ccc34)nc12)C1COC1` [Example I-252, 2-(6-Fluoro-1-methyl-1H-indazol-3-yl)-5H-pyrrolo[2,3-b]pyrazine-7-carboxylic acid ((R)-1-oxetan-3-yl-ethyl)-amide], the IC50 in assay [1] is 19.4 nM; in assay [2] it was 67.2 nM.

Consider `C[C@H](NC(=O)c1c[nH]c2ncc(-c3nn(C)c4cc(F)ccc34)nc12)c1cccc(OC(F)(F)F)c1` [Example I-253, 2-(6-Fluoro-1-methyl-1H-indazol-3-yl)-5H-pyrrolo[2,3-b]pyrazine-7-carboxylic acid [(S)-1-(3-trifluoromethoxy-phenyl)-ethyl]-amide], for which the results for the IC50 in assay [1] and in assay [2] were more than 1000 nM and 6370 nM, respectively.

Consider `C[C@@H](NC(=O)c1c[nH]c2ncc(-c3nn(C)c4cc(F)ccc34)nc12)c1cccc(OC(F)(F)F)c1` [Example I-254, 2-(6-Fluoro-1-methyl-1H-indazol-3-yl)-5H-pyrrolo[2,3-b]pyrazine-7-carboxylic acid [(R)-1-(3-trifluoromethoxy-phenyl)-ethyl]-amide], for which the results for the IC50 in assay [1] and in assay [2] were 18.6 nM and 3230 nM, respectively.
